Assay results taken from ChEMBL document CHEMBL4823243, “Synergistic induction of apoptosis in resistant head and neck carcinoma and leukemia by alkoxyamide-based histone deacetylase inhibitors” (Eur J Med Chem, 2021).
Activity calls are given as the source filed them. The calls are words filed in the database; no cut-off is given here.

How the values were obtained:
[1] = target: T1, Histone deacetylase (Homo sapiens) (UniProt Q13547+O15379+Q9UBN7+Q92769+Q9UQL6+Q8WUI4+Q9BY41+Q96DB2+P56524+Q9UKV0+Q969S8); test: Inhibition of HDAC in human Cal27CisR cells assessed as combination index at 0.5 uM measured in presence of 50 uM cDDP by MTT-based Chou-Talalay method; type: cell-based
Histone deacetylase [2] = test: Inhibition of HDAC in human CAL-27 cells using Boc-Lys (acetyl)-AMC as substrate preincubated for 18 hrs followed by susbtrate addition and measured after 3 hrs by fluorescence microplate reader assay; type: cell-based
Histone deacetylase [3] = test: Inhibition of HDAC in human A2780 cells using Boc-Lys (acetyl)-AMC as substrate preincubated for 18 hrs followed by susbtrate addition and measured after 3 hrs by fluorescence microplate reader assay; type: cell-based
Histone deacetylase 8 = target: T2, Histone deacetylase 8 (Homo sapiens, UniProt Q9BY41); test: Inhibition of recombinant human C-terminal His-fusion tagged/N-terminal Strep2 tagged HDAC8 (1 to 377 residues) expressed in insect cells using Boc-Lys(TFA)-AMC as substrate preincubated for 5 mins followed by substrate addition measured after 90 mins by fluorimetry
T2 sequence (Q9BY41 whole entry): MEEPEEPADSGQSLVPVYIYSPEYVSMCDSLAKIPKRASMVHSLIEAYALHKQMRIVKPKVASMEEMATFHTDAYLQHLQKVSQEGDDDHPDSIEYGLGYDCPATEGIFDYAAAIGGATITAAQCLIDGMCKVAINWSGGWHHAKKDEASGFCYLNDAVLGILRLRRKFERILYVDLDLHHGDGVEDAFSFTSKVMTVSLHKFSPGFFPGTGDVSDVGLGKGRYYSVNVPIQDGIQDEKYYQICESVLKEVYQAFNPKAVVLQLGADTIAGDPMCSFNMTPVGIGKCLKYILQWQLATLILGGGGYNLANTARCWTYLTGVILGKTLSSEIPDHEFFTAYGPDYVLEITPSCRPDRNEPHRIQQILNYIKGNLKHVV

CAL-27 [4] = test: Induction of DNA damage in human CAL-27 cells assessed as increase in gamma H2AX phosphorylation pretreated for 24 hrs followed by cisplatin treatment and further incubated for 18 hrs measured by Western blot analysis; type: functional, cell-based; details: time 42.0 hrs
[5] = target: T3, Protein deacetylase HDAC6 (Homo sapiens, UniProt Q9UBN7); test: Inhibition of recombinant human N-terminal GST-tagged HDAC6 (1 to 1215 residues) expressed in baculovirus infected insect cells using Boc-Lys(Ac)-AMC as substrate preincubated for 5 mins followed by substrate addition measured after 90 mins by fluorimetry
T3 sequence (Q9UBN7 whole entry): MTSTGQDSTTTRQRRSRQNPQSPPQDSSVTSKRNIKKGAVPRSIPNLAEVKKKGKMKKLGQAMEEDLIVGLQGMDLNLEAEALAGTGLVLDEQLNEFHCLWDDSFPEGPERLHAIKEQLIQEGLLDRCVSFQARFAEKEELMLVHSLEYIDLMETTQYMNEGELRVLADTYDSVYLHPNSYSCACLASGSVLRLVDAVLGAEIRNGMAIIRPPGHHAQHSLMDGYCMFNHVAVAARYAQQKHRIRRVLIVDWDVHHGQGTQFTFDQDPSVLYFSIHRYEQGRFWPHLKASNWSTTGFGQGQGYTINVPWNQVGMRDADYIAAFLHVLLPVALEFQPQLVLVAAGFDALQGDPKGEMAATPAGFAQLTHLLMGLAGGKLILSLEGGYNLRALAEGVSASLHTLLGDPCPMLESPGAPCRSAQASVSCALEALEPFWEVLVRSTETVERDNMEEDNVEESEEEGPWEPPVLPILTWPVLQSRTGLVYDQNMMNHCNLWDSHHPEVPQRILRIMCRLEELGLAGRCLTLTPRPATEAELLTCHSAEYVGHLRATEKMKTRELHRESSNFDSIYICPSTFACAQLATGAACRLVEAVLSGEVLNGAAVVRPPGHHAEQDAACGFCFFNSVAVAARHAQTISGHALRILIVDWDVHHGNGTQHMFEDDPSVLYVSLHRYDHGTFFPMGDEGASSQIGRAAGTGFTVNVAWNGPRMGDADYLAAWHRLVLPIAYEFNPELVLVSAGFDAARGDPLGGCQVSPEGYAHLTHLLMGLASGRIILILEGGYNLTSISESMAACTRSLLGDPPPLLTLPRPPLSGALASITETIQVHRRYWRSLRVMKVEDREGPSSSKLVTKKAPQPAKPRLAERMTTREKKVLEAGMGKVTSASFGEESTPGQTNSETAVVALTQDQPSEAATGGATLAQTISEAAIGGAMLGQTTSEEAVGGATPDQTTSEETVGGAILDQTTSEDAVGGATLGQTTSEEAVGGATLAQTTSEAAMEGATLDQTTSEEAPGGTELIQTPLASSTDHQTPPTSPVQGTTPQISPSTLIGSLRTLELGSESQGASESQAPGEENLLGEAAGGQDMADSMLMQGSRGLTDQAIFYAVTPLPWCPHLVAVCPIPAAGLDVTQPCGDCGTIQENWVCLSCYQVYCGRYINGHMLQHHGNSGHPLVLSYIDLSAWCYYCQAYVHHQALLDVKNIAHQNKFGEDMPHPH

Histone deacetylase 4 = Histone deacetylase 4 (Homo sapiens, UniProt P56524); test: Inhibition of recombinant human N-terminal GST-fusion tagged/C-terminal GST-tagged HDAC4 (627 to 1084 residues) expressed in baculovirus infected insect cells using Boc-Lys(TFA)-AMC as substrate preincubated for 5 mins followed by substrate addition measured after 90 mins by fluorimetry
Chain of Histone deacetylase 4 (P56524 whole entry, the tested form may be a part): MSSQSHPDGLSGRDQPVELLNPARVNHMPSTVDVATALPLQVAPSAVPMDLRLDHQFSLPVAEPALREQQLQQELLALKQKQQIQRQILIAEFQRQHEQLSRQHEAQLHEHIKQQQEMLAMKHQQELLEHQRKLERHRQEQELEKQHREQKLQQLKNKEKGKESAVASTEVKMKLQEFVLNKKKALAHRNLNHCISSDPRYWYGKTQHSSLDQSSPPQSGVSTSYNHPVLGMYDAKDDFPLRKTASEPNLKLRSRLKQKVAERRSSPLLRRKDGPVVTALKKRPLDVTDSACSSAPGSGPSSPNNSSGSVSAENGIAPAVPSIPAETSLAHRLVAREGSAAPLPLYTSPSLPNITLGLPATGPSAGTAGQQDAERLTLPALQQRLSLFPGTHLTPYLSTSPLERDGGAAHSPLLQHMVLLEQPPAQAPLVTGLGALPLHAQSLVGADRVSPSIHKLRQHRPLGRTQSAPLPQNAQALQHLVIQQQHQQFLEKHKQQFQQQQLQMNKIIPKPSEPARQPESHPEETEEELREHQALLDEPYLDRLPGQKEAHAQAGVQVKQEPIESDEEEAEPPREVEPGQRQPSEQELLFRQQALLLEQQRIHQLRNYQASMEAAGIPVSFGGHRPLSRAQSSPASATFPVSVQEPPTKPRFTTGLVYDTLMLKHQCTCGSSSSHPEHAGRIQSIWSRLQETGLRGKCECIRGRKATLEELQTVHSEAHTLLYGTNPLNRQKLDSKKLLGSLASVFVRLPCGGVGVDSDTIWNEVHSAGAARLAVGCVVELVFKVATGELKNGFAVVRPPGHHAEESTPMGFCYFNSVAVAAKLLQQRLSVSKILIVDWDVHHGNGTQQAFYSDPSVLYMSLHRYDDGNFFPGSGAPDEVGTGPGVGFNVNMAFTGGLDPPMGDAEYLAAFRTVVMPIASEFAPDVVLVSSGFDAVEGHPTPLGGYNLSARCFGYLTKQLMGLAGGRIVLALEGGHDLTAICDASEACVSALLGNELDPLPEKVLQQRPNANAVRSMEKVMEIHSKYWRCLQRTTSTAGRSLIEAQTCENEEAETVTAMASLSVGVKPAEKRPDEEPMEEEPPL

Cal27CisR [6] = test: Induction of DNA damage human Cal27CisR cells assessed as upregulation of gamma H2AX in presence cisplatin measured by Western blot analysis; type: functional
[7] = target: T4, Protein deacetylase HDAC6 (Homo sapiens) (UniProt Q9UBN7); test: Inhibition of HDAC6 in human CAL-27 cells assessed as accumulation of acetylated alpha-tubulin at 5 uM for 24 hrs by Western blot analysis; type: cell-based
T4 sequence (whole entry): T3 sequence (Q9UBN7 whole entry)

CAL-27 [8] = test: Induction of DNA damage in human CAL-27 cells assessed as upregulation of gamma H2AX in presence cisplatin measured by Western blot analysis; type: functional, cell-based
[9] = target: T1, Histone deacetylase (Homo sapiens); test: Inhibition of HDAC in human Cal27CisR cells assessed as combination index at 0.5 uM measured in presence of 10 uM cDDP by MTT-based Chou-Talalay method; type: cell-based
[10] = target: Class 1 histone deacetylase (Homo sapiens) (UniProt Q13547+O15379+Q92769+Q9BY41); test: Inhibition of class-1 HDAC in human CAL-27 cells assessed as induction of histone H-3 acetylation at 5 uM for 24 hrs by Western blot analysis; type: cell-based
CAL-27 [11] = test: Antiproliferative activity against human CAL-27 cells assessed as reduction in cell viability after 72 hrs by MTT assay; type: functional, cell-based; details: CAL-27, 72 h
Cal27CisR [12] = test: Induction of DNA damage in human Cal27CisR cells assessed as increase in gamma H2AX phosphorylation pretreated for 24 hrs followed by cisplatin treatment and further incubated for 18 hrs measured by Western blot analysis; type: functional, cell-based; details: time 42.0 hrs
A2780 = test: Antiproliferative activity against human A2780 cells assessed as reduction in cell viability after 72 hrs by MTT assay; type: functional, cell-based; details: A2780, 72 h

| CI [1] | IC50 (Histone deacetylase [2]) [nM] | IC50 (Histone deacetylase [3]) [nM] | IC50 (Histone deacetylase 8) [nM] | IC50 [5] [nM] | IC50 (Histone deacetylase 4) [nM] | inhibition [7] | CI [9] | Activity [10] | IC50 (A2780) [nM] | SMILES | Activity (CAL-27 [4]) | Activity (Cal27CisR [6]) | Activity (CAL-27 [8]) | IC50 (CAL-27 [11]) [nM] | Activity (Cal27CisR [12]) |
| --- | --- | --- | --- | --- | --- | --- | --- | --- | --- | --- | --- | --- | --- | --- | --- |
| 0.5 | 180 | 480 | 9780 | 25 | > 100000 | Active | 0.13 | Active | 800 | O=C(CCCCCONC(=O)c1ccc2ccccc2n1)NO | Active | Active | Active | 250 | Active |
| 0.47 | 120 | 670 | 10300 | 13 | 55700 | Active | 0.27 | Active | 4050 | O=C(CCCCCONC(=O)c1cc2ccccc2[nH]1)NO | Active | Active | Active | 300 | Active |
| 0.97 | 1500 | 250 | 12400 | 173 | > 100000 | Active | 1.11 | Active | 19900 | O=C(CCCCCONC(=O)c1nccc2ccccc12)NO | Active | Active | Active | 2120 | Active |
